Assay results taken from ChEMBL document CHEMBL3763031, “Design, synthesis and biological evaluation of monobactams as antibacterial agents against gram-negative bacteria” (2016).
Values after ≈ are worked out from the molar mass of the structure shown.

Key:
[1] = system: Pseudomonas aeruginosa; test: Antimicrobial activity against Pseudomonas aeruginosa 27853 after 18 hrs by microdilution method in presence of 0.4 uM iron; assay type: functional
[2] = system: Pseudomonas aeruginosa; test: Antimicrobial activity against Pseudomonas aeruginosa 27853 after 18 hrs by microdilution method in presence of 40 uM iron; assay type: functional
[3] = system: Pseudomonas aeruginosa; test: Antimicrobial activity against Pseudomonas aeruginosa PAO1 after 18 hrs by microdilution method in presence of 0.4 uM iron; assay type: functional
[4] = system: Pseudomonas aeruginosa; test: Antimicrobial activity against Pseudomonas aeruginosa 27853 after 18 hrs by microdilution method in presence of 4 uM iron; assay type: functional
[5] = system: Pseudomonas aeruginosa; test: Antimicrobial activity against Pseudomonas aeruginosa PAO1 after 18 hrs by microdilution method in presence of 4 uM iron; assay type: functional
[6] = system: Pseudomonas aeruginosa; test: Antimicrobial activity against Pseudomonas aeruginosa PAO1 after 18 hrs by microdilution method in presence of 40 uM iron; assay type: functional
[7] = system: Salmonella typhi; test: Antibacterial activity against beta-lactamase producing Salmonella typhi H901 after 18 hrs by agar dilution assay; assay type: functional, Salmonella enterica subsp. enterica serovar Typhi; details: Salmonella enterica, H901, 18 h
[8] = system: Proteus mirabilis; test: Antibacterial activity against beta-lactamase producing Proteus mirabilis 09-1 after 18 hrs by agar dilution assay; assay type: functional; details: 09-1, 18 h
[9] = system: Proteus vulgaris; test: Antibacterial activity against beta-lactamase producing Proteus vulgaris 29905 after 18 hrs by agar dilution assay; assay type: functional; details: Proteus vulgaris, 29905, 18 h
[10] = system: Providencia rettgeri; test: Antibacterial activity against Providencia rettgeri 31052 after 18 hrs by agar dilution assay; assay type: functional; details: Providencia rettgeri, 31052, 18 h
[11] = system: Pseudomonas aeruginosa; test: Antimicrobial activity against Pseudomonas aeruginosa PAO1 after 18 hrs by microdilution method in absence of iron; details: PAO1, 18 h
[12] = system: Morganella morganii; test: Antibacterial activity against beta-lactamase producing Morganella morganii 25830 after 18 hrs by agar dilution assay; assay type: functional; details: Morganella morganii, 25830, 18 h
[13] = system: Serratia marcescens; test: Antibacterial activity against beta-lactamase producing Serratia marcescens 41002 after 18 hrs by agar dilution assay; assay type: functional; details: Serratia marcescens, 41002, 18 h
[14] = system: Klebsiella aerogenes; test: Antibacterial activity against beta-lactamase producing Enterobacter aerogenes 45102 after 18 hrs by agar dilution assay; assay type: functional; details: Klebsiella aerogenes, 45102, 18 h
[15] = system: Enterobacter cloacae; test: Antibacterial activity against beta-lactamase producing Enterobacter cloacae 45301 after 18 hrs by agar dilution assay; assay type: functional; details: Enterobacter cloacae, 45301, 18 h
[16] = system: Escherichia coli; test: Selectivity ratio of MIC for Escherichia coli BL21 to MIC for acrAB and acrEF knock-out Escherichia coli BL21; assay type: functional
[17] = system: Klebsiella pneumoniae; test: Antibacterial activity against ESBL negative Klebsiella pneumoniae 7 after 18 hrs by agar dilution assay; assay type: functional; details: Klebsiella pneumoniae, 7, 18 h
[18] = system: Klebsiella pneumoniae; test: Antibacterial activity against NDM-1 positive Klebsiella pneumoniae BAA-2146 after 18 hrs by agar dilution assay; assay type: functional; details: BAA-2146, 18 h
[19] = system: Klebsiella pneumoniae; test: Antibacterial activity against ESBL negative Klebsiella pneumoniae 09-8 after 18 hrs by agar dilution assay; assay type: functional; details: 09-8, 18 h
[20] = system: Escherichia coli; test: Antibacterial activity against acrAB and acrEF knock-out Escherichia coli BL21 by microbroth dilution assay; assay type: functional
[21] = system: Escherichia coli; test: Antibacterial activity against Escherichia coli BL21 by microbroth dilution assay; assay type: functional
[22] = system: Pseudomonas aeruginosa; test: Antibacterial activity against BL positive Pseudomonas aeruginosa 09-14 after 18 hrs by agar dilution assay; assay type: functional; details: 09-14, 18 h
[23] = system: Pseudomonas aeruginosa; test: Antibacterial activity against BL positive Pseudomonas aeruginosa PAO1 after 18 hrs by agar dilution assay; assay type: functional; details: PAO1, 18 h
[24] = system: Pseudomonas aeruginosa; test: Antibacterial activity against BL positive Pseudomonas aeruginosa 27853 after 18 hrs by agar dilution assay; assay type: functional; details: Pseudomonas aeruginosa, 27853, 18 h
[25] = system: Klebsiella pneumoniae; test: Antibacterial activity against ESBL positive Klebsiella pneumoniae 09-25 after 18 hrs by agar dilution assay; assay type: functional; details: 09-25, 18 h
[26] = system: Klebsiella pneumoniae; test: Antibacterial activity against ESBL positive Klebsiella pneumoniae 700603 after 18 hrs by agar dilution assay; assay type: functional; details: Klebsiella pneumoniae, 700603, 18 h
[27] = system: Escherichia coli; test: Antibacterial activity against ESBL negative Escherichia coli 09-20 after 18 hrs by agar dilution assay; assay type: functional; details: 09-20, 18 h
[28] = system: Escherichia coli; test: Antibacterial activity against ESBL positive Escherichia coli 09-1 after 18 hrs by agar dilution assay; assay type: functional; details: 09-1, 18 h
[29] = system: Escherichia coli; test: Antibacterial activity against ESBL negative Escherichia coli 1515 after 18 hrs by agar dilution assay; assay type: functional; details: Escherichia coli, 1515, 18 h
[30] = system: Escherichia coli; test: Antibacterial activity against ESBL negative Escherichia coli 25922 after 18 hrs by agar dilution assay; assay type: functional; details: Escherichia coli, 25922, 18 h
[31] = system: Citrobacter freundii; test: Antibacterial activity against beta-lactamase producing Citrobacter freundii 43864 after 18 hrs by agar dilution assay; assay type: functional; details: Citrobacter freundii, 43864, 18 h
[32] = system: Pseudomonas aeruginosa; test: microbe, parasite or virus in culture; details: Pseudomonas aeruginosa, 27853, 18 h
Description: Antimicrobial activity against Pseudomonas aeruginosa 27853 after 18 hrs by microdilution method in absence of iron

[33] = Pseudomonas aeruginosa, 27853, 18 h

Compound: GENTAMICIN
- MIC [1]: 1 µg/mL
- MIC [2]: 128 µg/mL
- MIC [3]: 128 µg/mL
- MIC [4]: 1 µg/mL
- MIC [5]: 1 µg/mL
- MIC [6]: 128 µg/mL

Compound: CC1(C)[C@H](NC(=O)/C(=N\OCc2ccccn2)c2csc(N)n2)C(=O)N1S(=O)(=O)O
- MIC [7]: 32 µg/mL (≈ 70.4 µM)
- MIC [8]: 2 µg/mL (≈ 4.4 µM)
- MIC [9]: 0.125 µg/mL (≈ 0.275 µM)
- MIC [10]: 0.06 µg/mL (≈ 0.132 µM)
- MIC [11]: 64 µg/mL (≈ 141 µM)
- MIC [12]: 0.5 µg/mL (≈ 1.1 µM)
- MIC [13]: 8 µg/mL (≈ 17.6 µM)
- MIC [14]: 8 µg/mL (≈ 17.6 µM)
- MIC [15]: 1 µg/mL (≈ 2.2 µM)
- MIC [1, 33]: 128 µg/mL
- MIC [2, 33]: 128 µg/mL
- Selectivity ratio [16]: >16
- MIC [17]: 4 µg/mL (≈ 8.8 µM)
- MIC [18]: 16 µg/mL (≈ 35.2 µM)
- MIC [19]: 4 µg/mL (≈ 8.8 µM)
- MIC ([3]; PAO1, 18 h): 64 µg/mL
- MIC [4, 33]: 128 µg/mL
- MIC ([5]; PAO1, 18 h): 128 µg/mL
- MIC ([6]; PAO1, 18 h): 64 µg/mL
- MIC [20]: ≤ 0.06 µg/mL
- MIC [21]: 2 µg/mL (≈ 4.4 µM)
- MIC [22]: 64 µg/mL (≈ 141 µM)
- MIC [23]: 32 µg/mL (≈ 70.4 µM)
- MIC [24]: 64 µg/mL (≈ 141 µM)
- MIC [25]: 32 µg/mL (≈ 70.4 µM)
- MIC [26]: > 128 µg/mL
- MIC [27]: 4 µg/mL (≈ 8.8 µM)
- MIC [28]: 4 µg/mL (≈ 8.8 µM)
- MIC [29]: 2 µg/mL (≈ 4.4 µM)
- MIC [30]: 2 µg/mL (≈ 4.4 µM)
- MIC [31]: 2 µg/mL (≈ 4.4 µM)
- MIC [32]: 128 µg/mL (≈ 282 µM)
